In ChEMBL document CHEMBL1201862, “PubChem BioAssay data set” (2004):
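Growth conditions: 96-well plates. Treatment: test compound, 48 hours, 5 concentrations. Analysis: linear interpolation between bracketing concentrations; unreached endpoints set to highest concentration. GI50 = concentration required for 50% inhibition of growth.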 Activity calls are given as the source filed them. No stated cut-off is given here; in the data, active = GI50 up to about 1.1 µM and inactive = higher.

Legend:
Test in all cases: DTP human tumour cell line panel, 48 h
COLO 205 = tested on: COLO 205
HCC 2998 = tested on: HCC 2998
HT-29 = tested on: HT-29
IGROV-1 = tested on: IGROV-1
LOX IMVI = tested on: LOX IMVI
MDA-MB-231 = tested on: MDA-MB-231
MDA-N = tested on: MDA-N
Malme-3M = tested on: Malme-3M
NCI-H226 = tested on: NCI-H226
NCI-H23 = tested on: NCI-H23
NCI-H522 = tested on: NCI-H522
NCI/ADR-RES = tested on: NCI/ADR-RES
SF-539 = tested on: SF-539
SK-MEL-5 = tested on: SK-MEL-5
SN12C = tested on: SN12C
UACC-62 = tested on: UACC-62
OVCAR-5 = tested on: OVCAR-5
U-251 = tested on: U-251

Measured: GI50

Cc1cccc(Nc2nc(NNC(=O)Cc3ccccc3)nc(NNC(=O)c3ccncc3)n2)c1
inactive: COLO 205 > 10 µM | HCC 2998 > 10 µM | HT-29 > 10 µM | IGROV-1 > 10 µM | LOX IMVI > 10 µM | MDA-MB-231 > 10 µM | MDA-N > 10 µM | Malme-3M > 10 µM | NCI-H226 > 10 µM | NCI-H23 > 10 µM | NCI-H522 > 10 µM | NCI/ADR-RES > 10 µM | SF-539 > 10 µM | SK-MEL-5 > 10 µM | SN12C > 10 µM | UACC-62 > 10 µM

CC(=O)N1C(Nc2cnc3ccccc3c2)CCN1c1ccccc1 (configuration not stated)
inactive: COLO 205 > 10 µM | HCC 2998 > 10 µM | HT-29 > 10 µM | IGROV-1 > 10 µM | LOX IMVI 5.65 µM | MDA-MB-231 > 10 µM | MDA-N > 10 µM | Malme-3M > 10 µM | NCI-H226 > 10 µM | NCI-H23 > 10 µM | NCI-H522 > 10 µM | NCI/ADR-RES > 10 µM | OVCAR-5 > 10 µM | SF-539 > 10 µM | SK-MEL-5 > 10 µM | SN12C > 10 µM

Cc1nc2ccc(Br)cc2c(=O)n1-c1nnc(C(C)(C)C)s1
inactive: COLO 205 > 10 µM | HCC 2998 > 10 µM | HT-29 > 10 µM | IGROV-1 > 10 µM | LOX IMVI > 10 µM | MDA-MB-231 > 10 µM | MDA-N > 10 µM | NCI-H226 > 10 µM | NCI-H23 > 10 µM | NCI-H522 > 10 µM | NCI/ADR-RES > 10 µM | OVCAR-5 > 10 µM | SF-539 > 10 µM | SK-MEL-5 > 10 µM | SN12C > 10 µM | U-251 > 10 µM | UACC-62 > 10 µM

CNC(=O)N(CCC#N)CCN(CCN(C(=O)NC)c1ccccc1)C(=O)NC
inactive: COLO 205 > 100 µM | HCC 2998 > 100 µM | HT-29 > 100 µM | IGROV-1 > 100 µM | LOX IMVI > 100 µM | MDA-MB-231 > 100 µM | MDA-N > 100 µM | Malme-3M > 100 µM | NCI-H226 > 100 µM | NCI-H23 > 100 µM | NCI-H522 > 100 µM | NCI/ADR-RES > 100 µM | OVCAR-5 > 100 µM | SF-539 > 100 µM | SK-MEL-5 > 100 µM | SN12C > 100 µM | U-251 > 100 µM | UACC-62 > 100 µM

CN(C)/N=N/c1nc2c(c(=O)n(C)c(=O)n2C)n1CC1CO1 (configuration not stated)
inactive: COLO 205 14.3 µM | HCC 2998 12.7 µM | HT-29 13.6 µM | IGROV-1 11.7 µM | LOX IMVI 8.43 µM | MDA-MB-231 16.9 µM | MDA-N 19.9 µM | Malme-3M 9.18 µM | NCI-H226 8.51 µM | NCI-H23 12.2 µM | NCI-H522 14.1 µM | NCI/ADR-RES 16.6 µM | OVCAR-5 32 µM | SF-539 7.1 µM | SK-MEL-5 12.9 µM | SN12C 15.7 µM | U-251 12.5 µM | UACC-62 12.4 µM

CC(C)(C)OC(=O)[N+](=N)C(=O)C1CCC(=O)N1C(=O)OCc1ccccc1 (configuration not stated)
inactive: COLO 205 > 100 µM | HCC 2998 > 100 µM | HT-29 > 100 µM | IGROV-1 > 100 µM | LOX IMVI > 100 µM | MDA-MB-231 > 100 µM | MDA-N > 100 µM | Malme-3M > 100 µM | NCI-H226 > 100 µM | NCI-H23 > 100 µM | NCI-H522 > 100 µM | NCI/ADR-RES > 100 µM | OVCAR-5 > 100 µM | SK-MEL-5 > 100 µM | SN12C > 100 µM | U-251 > 100 µM | UACC-62 > 100 µM
